In ChEMBL document CHEMBL3576844, “Melanin-concentrating hormone receptor 1 antagonists for treatment of obesity” (ACS Med Chem Lett, 2015):

How the values were obtained:
[1] = target: Melanin-concentrating hormone receptor 1 (Homo sapiens) (UniProt Q99705); test: Displacement of [125I]-MCH (4 to 19) from human MCH1 receptor expressed in CHO cell membranes at 0.1 uM after 1 hr by liquid scintillation counting analysis relative to control
[2] = target: Melanin-concentrating hormone receptor 1 (Homo sapiens) (UniProt Q99705); test: Antagonist activity at human MCH1 receptor expressed in CHO cell membranes assessed as inhibition of MCH (4 to 19)-stimulated calcium mobilization at 0.1 uM measured every 2 secs by fluorometric analysis relative to control; assay type: functional, cell-based
hERG (KCNH2) = hERG (KCNH2) (Homo sapiens, UniProt Q12809); test: Inhibition of human ERG expressed in CHO cells at 10 uM after 5 mins by IonWorks assay relative to control; details: CHO cells expressing human ERG
Chain of hERG (KCNH2) (Q12809 whole entry): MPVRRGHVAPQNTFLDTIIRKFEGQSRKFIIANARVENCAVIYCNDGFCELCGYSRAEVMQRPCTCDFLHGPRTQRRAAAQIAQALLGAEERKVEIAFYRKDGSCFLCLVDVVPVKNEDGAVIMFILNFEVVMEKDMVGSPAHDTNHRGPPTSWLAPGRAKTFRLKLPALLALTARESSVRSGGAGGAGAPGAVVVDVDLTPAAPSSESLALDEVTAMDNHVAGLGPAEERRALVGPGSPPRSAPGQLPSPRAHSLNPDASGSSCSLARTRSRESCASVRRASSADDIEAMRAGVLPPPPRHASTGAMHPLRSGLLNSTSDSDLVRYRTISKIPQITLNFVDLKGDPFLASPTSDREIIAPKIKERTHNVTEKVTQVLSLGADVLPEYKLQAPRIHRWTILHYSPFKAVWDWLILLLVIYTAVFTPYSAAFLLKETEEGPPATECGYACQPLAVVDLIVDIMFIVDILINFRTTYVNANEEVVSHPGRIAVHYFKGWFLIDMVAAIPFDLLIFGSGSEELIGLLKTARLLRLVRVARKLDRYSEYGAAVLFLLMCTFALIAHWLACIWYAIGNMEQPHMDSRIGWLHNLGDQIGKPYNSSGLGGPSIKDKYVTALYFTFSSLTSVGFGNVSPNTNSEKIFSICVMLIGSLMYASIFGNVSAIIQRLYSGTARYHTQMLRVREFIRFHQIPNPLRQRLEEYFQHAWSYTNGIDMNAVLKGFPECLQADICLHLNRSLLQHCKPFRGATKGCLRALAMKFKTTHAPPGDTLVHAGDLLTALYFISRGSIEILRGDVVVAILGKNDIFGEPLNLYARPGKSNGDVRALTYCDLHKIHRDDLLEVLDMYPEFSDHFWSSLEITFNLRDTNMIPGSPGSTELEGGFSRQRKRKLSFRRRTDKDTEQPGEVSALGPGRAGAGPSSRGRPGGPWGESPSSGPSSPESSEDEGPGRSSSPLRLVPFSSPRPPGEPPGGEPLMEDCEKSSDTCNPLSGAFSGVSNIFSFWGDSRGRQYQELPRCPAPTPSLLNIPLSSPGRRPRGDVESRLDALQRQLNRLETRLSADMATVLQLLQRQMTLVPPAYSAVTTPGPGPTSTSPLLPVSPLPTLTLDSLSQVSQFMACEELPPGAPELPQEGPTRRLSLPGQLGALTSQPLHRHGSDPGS

Chain of Melanin-concentrating hormone receptor 1 (Homo sapiens) (Q99705 whole entry): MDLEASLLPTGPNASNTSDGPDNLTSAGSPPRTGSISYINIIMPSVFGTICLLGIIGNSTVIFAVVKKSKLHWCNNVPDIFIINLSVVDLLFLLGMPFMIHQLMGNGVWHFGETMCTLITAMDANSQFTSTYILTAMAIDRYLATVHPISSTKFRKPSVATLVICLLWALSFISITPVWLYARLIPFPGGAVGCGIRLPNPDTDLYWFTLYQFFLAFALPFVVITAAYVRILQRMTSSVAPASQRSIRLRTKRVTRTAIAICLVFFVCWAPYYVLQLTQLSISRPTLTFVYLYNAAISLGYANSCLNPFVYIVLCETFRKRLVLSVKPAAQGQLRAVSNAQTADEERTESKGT

Question: `Cc1c2cc(-n3ccc(OCc4csc(C(F)(F)F)n4)cc3=O)ccc2nn1C1CC1` was tested. Which inhibition [1] did it give?
Answer: 50%

Question: And the inhibition [2]?
Answer: 78%

Question: What does the source list for `Cc1c2cc(-n3ccc(OCc4csc(C(F)(F)F)c4)cc3=O)ccc2nn1C1CC1`?
Answer: inhibition [1]: 77%; inhibition [2]: 55%

Question: `Cc1c2cc(-n3ccc(OCc4ccc(F)cc4)cc3=O)ccc2nn1C1CC1` was tested. Which inhibition [1] did it give?
Answer: 72%

Question: And the inhibition [2]?
Answer: 70%

Question: How did the inhibition at 5 min, 10 µM (hERG (KCNH2)) turn out when `Cc1c2cc(-n3ccc(OCc4ccc(Cl)cc4)cc3=O)ccc2nn1C` was run?
Answer: 22.1%

Question: And the inhibition [1]?
Answer: 72%

Question: And the inhibition [2]?
Answer: 83%
